Experimental data taken from US20080103198A1, “METHODS FOR TREATMENT OF COCHLEAR AND VESTIBULAR DISORDERS” (priority 2006, published 2008).
Where “and” joins values, the source holds several entries; their conditions need not be identical. Equal values may be shown once.

Tests used:
Format in all cases: in vivo, rat
[1] = tested on: Li-pilo induced SE; test: Lithium-pilocarpine model (Example 1): quantification of cell densities
Protocol: Quantification of cell densities was performed at […] after SE on 8 pilo-DZP, 8 pilo-test10, 7 pilo-test30, 7 pilo-test60, and 6 saline-saline rats. At 14 days after SE, animals were deeply anesthetized with 1.8 g/kg pentobarbital (Dolethal®, Vetoquinol, Lure, France. Brains were then removed and frozen. Serial 20 μm slices were cut in a cryostat, air-dried during several days before thionine staining.
Quantification of cell densities was performed with a 10×10 boxes 1 cm^2 microscopic grid on coronal sections according to the stereotaxic coordinates of the rat brain atlas (Paxinos and Watson, 1986, The Rat brain in Stereotaxic Coordinates, 2nd ed. Academic Press, San Diego). Cell counts were performed twice in a blind manner and were the average of at least 3 values from 2 adjacent sections in each individual animal. Counts involved only cells larger than 10 μm, smaller ones being considered as glial cells.
For the comparison of the characteristics of SE in pilo-saline and pilo-test compound animals, a non-paired Student's t-test was used. The comparison between the number of rats seizing in both groups was performed by means of a Chi square test. For neuronal damage, statistical analysis between groups was performed using ANOVA followed by a Fisher's test for multiple comparisons using the Statview software (Fisher R A, 1946a, Statistical Methods for Research Workers (10th edition) Oliver & Boyd, Edinburgh; Fisher R A, 1946b, The Design of Experiments (4th edition) Oliver & Boyd, Edinburgh) Behavioral and EEG characteristics of lithium-pitocarpine status epilepticus

[2] = tested on: Li-pilo induced SE; test: Lithium-pilocarpine model (Example 1): Timm staining, mossy fiber sprouting
Protocol: At 2 months after the onset of spontaneous recurrent seizures, mossy fiber sprouting was examined on rats in the chronic period exposed to the test compound or DZP and in 3 saline-saline rats. Animals were deeply anaesthetized and perfused transcardially with saline followed by 100 ml of 1.15% (w/v) Na2S in 0.1 M phosphate buffer, and 100 ml of 4% (v/v) formaldehyde in 0.1 M phosphate buffer. Brains were removed from skull, post-fixed in 4% formaldehyde during 3-5 h and 40 μm sections were cut on a sliding vibratome and mounted on gelatin-coated slides.
The following day, sections were developed in the dark in a 26° C. solution of 50% (w/v) arabic gum (160 ml), sodium citrate buffer (30 ml), 5.7% (w/v) hydroquinone (80 ml) and 10% (w/v) silver nitrate (2.5 ml) during 40-45 min. The sections were then rinsed with tap water at 40° C. during at least 45 min, rinsed rapidly with distilled water and allowed to dry. They were dehydrated in ethanol and coverslipped.
Mossy fiber sprouting was evaluated according to criteria previously described in dorsal hippocampus (Cavazos et al., 1991, J Neurosci 11:2795-2803), which are follows: 0—no granules between the tips and crest of the DG; 1—sparse granules in the supragranular region in a patchy distribution between the tips and crest of DG; 2—more numerous granules in a continuous distribution between the tips and crest of DG; 3—prominent granules in a continuous pattern between tips and crest, with occasional patches of confluent granules between tips and crest; 4—prominent granules that form a confluent dense laminar band between tips and crest and 5—confluent dense laminar band of granules that extends into the inner molecular layer.

[3] = tested on: Li-Pilo SE; test: Lithium-pilocarpine model (Example 2): mortality and latency to SRS; parameters: degree of mortality: concentration or dose not given beside the values; conditions: for mortality over the first 48 h after SE: early cell counting group; for degree of mortality: latency to SRS / late cell counting group
Protocol: The model induced in rats by pilocarpine associated with lithium (Li-Pilo) reproduces most of the clinical and neurophysiological features of human temporal lobe epilepsy (See, Turski et al., 1989; Synapse 3:154-171; Cavalheiro, 1995, Ital J Neurol Sci 16:33-37). In adult rats, the systemic administration of pilocarpine leads to SE that may last for up to 24 h. The lethality rate reaches 30-50% during the first days. In the surviving animals, neuronal damage predominates within the hippocampal formation, the piriform and entorhinal cortices, thalamus, amygdaloid complex, neocortex and substantia nigra.
In the present study, we tested the effects of different doses of various doses of test compound, i.e. 30, 60, 90 and 120 mg/kg (referred to herein as RWJ30, RWJ60, RWJ90 and RWJ120) using the same design as in the previous study. The treatment was started one hour after the onset of status epilepticus (SE) and the animals were treated with a second injection of the same dose of the drug. This early treatment of SE was followed by a 6 day test compound treatment. This report concerns the effects of the four different doses of test compound on neuronal damage in hippocampus and parahippocampal cortices. The study on the latency to the onset of epilepsy is still incomplete but we will show the data we have got at present which have been performed on a limited group of animals. The latency to spontaneous epileptic seizures was correlated on the same rats to the number of neurons remaining in the areas involved in the circuit of seizures.
Adult male Sprague-Dawley rats provided by Janvier Breeding Center (Le Genest-St-Isle, France) were housed under controlled, uncrowded standard conditions at 20-22° C. (light/dark cycle, 7.00 a.m.-7.00 p.m. lights on), with food and water available ad libitum. All animal experimentation was performed in accordance with the rules of the European Communities Council Directive of Nov. 24, 1986 (86/609/EEC), and the French Department of Agriculture (License No 67-97).
All rats received lithium chloride (3 meq/kg, i.p., Sigma, St Louis, Mo., U.S.A.) and about 20 h later, all animals received also methylscopolamine bromide (1 mg/kg, s.c., Sigma) that was administered to limit the peripheral effects of the convulsant. SE was induced by injecting pilocarpine hydrochloride (25 mg/kg, s.c., Sigma) 30 min after methylscopolamine. The effects of increasing doses of test compound (RWJ) were studied in 5 groups of rats. The animals received either 2.5 mg/kg diazepam, i.m., (DZP), or 30, 60, 90 or 120 mg/kg of test compound (RWJ30, RWJ60, RWJ90, RWJ120), i.p., at 1 h after the onset of SE. The control group received vehicle instead of pilocarpine and test compound. The rats surviving SE were then injected about 10 h after the first test compound injection with a second i.p. injection of 1.25 mg/kg DZP for the DZP group or of the same dose of test compound as in the morning and were maintained under a twice daily test compound treatment for 6 additional days (s.c.) while DZP rats received a vehicle injection. The effects of the four doses of test compound on the latency to occurrence of spontaneous recurrent seizures (SRS) were investigated by daily video recording of the animals for 10 h per day.

[4] = DZP, compared to saline-saline rats

In the case of CN1C(=O)CN=C(c2ccccc2)c2cc(Cl)ccc21 [DZP, diazepam, reference compound], the “cell loss, CA3a” value [1, 4] is reported as 54%, the “cell loss, CA3b” value [1, 4] is reported as 31% and the “cell loss, dorsal entorhinal cortex layer II” value [1, 4] is reported as 9%. The “cell loss, dorsal entorhinal cortex layers III-IV” value [1, 4] was 15%, the “cell loss, hilus of dentate gyrus” value [1, 4] was 73% and the “cell loss, hippocampus CA1 pyramidal cell layer” value [1, 4] was 70% and 75%. The “cell loss, lateral thalamic nucleus” value [1, 4] was 91%, the “cell loss, mediodorsal thalamic nucleus” value [1, 4] was 56% and the “cell loss, piriform cortex layer II” value [1, 4] was 53%. The “cell loss, piriform cortex layers III-IV” value [1, 4] was “total”, the “cell loss, ventral entorhinal cortex layers III-IV” value [1, 4] was 44% and the “damage, ventral entorhinal cortex layer II” value [1, 4] was “totally preserved”. For the same compound, the “Timm score, upper blade of dentate gyrus (mean)” value (from here on “Timm score, upper blade”) ([2]; DZP, n=9) was 2.8±0.8, the “latency to spontaneous seizures (mean)” value ([3]; DZP group, 7 rats) was 18 ± 8 days and the “mortality over the first 48 h after SE” value ([3]; DZP 2.5 mg/kg i.m.) was 47%. It also gave a degree of mortality ([3]; DZP) of 30%.
In the case of NC(=O)OC[C@@H](O)c1ccccc1Cl [test compound], the “more damage compared with pilo-DZP rats, dorsal entorhinal cortex layers III-IV” value ([1]; 10 mg/kg) is reported as 28%, the “more damage compared with pilo-DZP rats, ventral entorhinal cortex layers III-IV” value ([1]; 10 mg/kg) is reported as 35% and the “neuroprotection compared to pilo-DZP rats, ventral entorhinal cortex layers III-IV” value ([1]; 60 mg/kg) is reported as 31%. For the same compound, the “neuroprotection in CA3b” value ([1]; 60 mg/kg) was “significantly neuroprotective”, the “reduction of neuronal damage recorded in pilo-DZP rats, piriform cortex layer II” value ([1]; 60 mg/kg) was 41% and the “reduction of neuronal damage recorded in pilo-DZP rats, piriform cortex layers III-IV” value ([1]; 60 mg/kg) was 44%. For the same compound, the “reduction of neuronal damage, lateral thalamic nucleus” value ([1]; 60 mg/kg) was 65%, the “reduction of neuronal damage, mediodorsal thalamic nucleus” value ([1]; 60 mg/kg) was 42% and the “neuroprotection in CA3a area” value ([1]; 10, 30, 60 mg/kg) was “did not afford any protection”. For the same compound, the “cell loss, hilus of dentate gyrus” value ([1]; pilo-test compound animals (10-60 mg/kg)) was 69-72%, the “cell loss, CA1 pyramidal layer” value ([1]; test compound 30 mg/kg) was 35% and the “cell loss, CA1 pyramidal layer” value ([1]; test compound 60 mg/kg) was 16%. The “Timm score, upper blade” value ([2]; 10 mg/kg, n=7) was 1.5±0.6, the “Timm score, upper blade” value ([2]; 30 mg/kg, n=10) was 2.6±1.0 and the Timm score ([2]; 60 mg/kg, subgroup with early SRS occurrence, n=6) was 1.8±0.6. The Timm score ([2]; 60 mg/kg, subgroup with late occurrence or absence of SRS, n=5) was 1.2±0.6, the “Timm score, upper blade” value ([2]; 60 mg/kg, whole group, n=11) was 1.5±0.7 and the “latency to spontaneous seizures, individual rats” value ([3]; 30 mg/kg, two rats) was 8 days and 9 days. For the same compound, the “first spontaneous seizure after SE, individual rats” value (shortened to “first spontaneous seizure after SE”) ([3]; 60 mg/kg, 3 rats) was 7 days and 8 days and 38 days, the “first spontaneous seizure after SE” value ([3]; 90 mg/kg, 3 rats) was 9 days and 10 days and 51 days and the “first spontaneous seizure after SE” value ([3]; 120 mg/kg, 2/4 rats with prolonged latency) was 79 days and 44 days. For the same compound, the “recording time following SE without any seizure” value ([3]; 120 mg/kg, the two other rats) was over 5 months, the “mortality over the first 48 h after SE” value ([3]; RWJ30 (30 mg/kg i.p.)) was 43% and the “mortality over the first 48 h after SE” value ([3]; RWJ60 (60 mg/kg i.p.)) was 0%. The “mortality over the first 48 h after SE” value ([3]; RWJ90 (90 mg/kg i.p.)) was 0%, the “mortality over the first 48 h after SE” value ([3]; RWJ120 (120 mg/kg i.p.)) was 47% and the degree of mortality ([3]; RWJ30) was 50%. For the same compound, the degree of mortality ([3]; RWJ60) was 0%, the degree of mortality ([3]; RWJ90) was 0% and the degree of mortality ([3]; RWJ120) was 0%.
